According to paper PMC6445228, “Synthesis and biological evaluation of anti-Toxoplasma gondii activity of a novel scaffold of thiazolidinone derivatives” (Journal of Enzyme Inhibition and Medicinal Chemistry, 2017):
Where two headings read alike, the source gives them in different places.

What was measured:
[1] = test system: T. gondii RH-2 F tachyzoites; test: Five-day growth inhibition assay (tachyzoite growth, colorimetric); format: cell-based, Toxoplasma gondii; conditions: 120 h; for IC50: read-out: IC50, median inhibitory concentration, a measure of tachyzoite inhibition; for IC90: read-out: IC90, concentration at which 90% of the tachyzoite growth is inhibited
Description: (§1) Using published methods[8]^,[19], all of the prepared N-substituted thiazolidinones derivatives were evaluated in vitro for (i) host cell cytotoxicity as well as for the ability to inhibit tachyzoite growth over a period of 5 days (Table 1), for (ii) the ability to inhibit tachyzoite invasion of host cells (Figure 1), and for (iii) the ability to inhibit intracellular tachyzoite replication (Figure 2).
(§2) Compounds were tested for the ability to inhibit in vitro tachyzoite (T. gondii RH-2 F (50839); ATCC, VA) and human foreskin fibroblast (HFF; ATCC) growth for 120 h using a published colorimetric assay[8]^,[19]. Stock solutions of all compounds were 10 mM in DMSO. Serial 0.5 log10 dilutions (320–0.032 μM) of each compound were tested. Data from three separate experiments were analysed and the IC50, IC90, and TD50 calculated using Calcusyn software (Biosoft, Cambridge, UK). The therapeutic index (TI), a measure of specific anti-T. gondii activity, was calculated with the formula shown under Table 1.
We explored the chemical space and the influence on the biological activity of different groups (substituted aromatic and bicyclic rings) at the lactam NH of the core nucleus. […] In the five-day growth inhibition assay, compounds were added only once, just before addition of tachyzoites, and thus were present for multiple cycles, up to 20, of parasite replication.

[2] = test system: human foreskin fibroblast (HFF); test: Five-day growth inhibition assay, host cell cytotoxicity; conditions: 120 h
Description: as §1, §2

[3] = test system: extracellular T. gondii tachyzoites invading HFF host cells; test: Red/green invasion assay (immunofluorescence); format: cell-based, Toxoplasma gondii; conditions: 10 μM, 20 min preincubation, 1 h at 37 °C on HFF, vs vehicle, p ≤ .05
Description: Figure 1. Invasion assay of ferrocene-based thiazolidinone derivatives (10 μM). VHL: vehicle (DMSO). *Significant inhibition of tachyzoite invasion (p ≤ .05, two-tailed Students’ t test). **Significant inhibition of tachyzoite attachment (p ≤ .05, two-tailed Students’ t test). Data are compiled from results of three independent experiments.
The ferrocene-based derivatives (10 μM) were examined for activity directly on extracellular tachyzoites using an established immunofluorescence-based red/green invasion assay. This assay measures a compound’s ability to impede the parasite-driven host cell entry of tachyzoites through the host cell plasma membrane. Invaded (intracellular) tachyzoites are labelled green while tachyzoites attached to the surface, but unable to invade, are labelled red. A decrease in the number of invaded tachyzoites relative to vehicle [VHL (DMSO)] is indicative of invasion inhibition. A decrease in the number of invaded plus attached tachyzoites relative to same of VHL is indicative of inhibition of attachment. Data shown are mean values ± SEM of three independent experiments.
We next evaluated the ability of the ferrocene-based derivatives to act directly upon extracellular tachyzoites by using a standard red/green invasion assay. This assay interrogates compounds for inhibition of the first step in host cell infection, i.e. invasion and entry into susceptible cells. In this assay (Figure 1), cell-free purified tachyzoites were incubated with a test compound (10 μM), sulfadiazine (10 μM), or VHL for 20 min at room temperature before being added to HFF host cells. After allowing 1 h at 37 °C for the tachyzoites to attach and invade, the cells were processed by immunofluorescent staining. Extracellular/attached tachyzoites were labelled red while intracellular/penetrated tachyzoites were labelled green.

[4] = test system: intracellular T. gondii tachyzoites; test: Replication assay (immunofluorescence, tachyzoites per parasitophorous vacuole); format: cell-based, Toxoplasma gondii; conditions: 10 μM, added 2 h after infection, 24 h
Description: Figure 2. Replication assay of ferrocene-based thiazolidinone derivatives (10 μM). VHL: vehicle (DMSO); Tz: tachyzoites. Data are compiled from results of three independent experiments.
This assay measures a compound’s ability to inhibit tachyzoite replication over a period of 24 h. The numbers of parasitophorous vacuoles (PV) in experimentally treated infected cells containing 1, 2, 4, or 8 + tachyzoites/vacuole were enumerated, graphed, and compared to those of the VHL-treated infected cells. Data for each size vacuole are shown as the fraction of the total number of vacuoles counted in 10–15 fields. Data shown were compiled from three independent experiments. A decrease in the number of tachyzoites in a vacuole indicates inhibition of replication. Toxoplasma gondii tachyzoites only replicate within the PV inside the host cell with one cycle of replication taking 6–8 h. […] Consequently, a decrease in the number of intravacuolar tachyzoites relative to that of VHL indicates inhibition of replication. Specifically, predominance, i.e. the largest fraction of the total number, of PVs containing 1 or 2 tachyzoites indicates replication inhibition.
Lastly, the replication assay interrogates a compound’s ability to inhibit an established intracellular Toxoplasma infection over the relatively short period of 24 h (3–4 cycles of replication). […] Likewise, allowance of just one cycle of replication results in a majority of PVs containing just two tachyzoites. However, a predominance of PVs containing eight or more tachyzoites indicates absence of inhibitory activity over a 24 h period (see detailed explanation above in Experimental Protocols).

[5] = T. gondii RH-2 F in HFF, three experiments
[6] = HFF cells, top concentration 320 μM

For `CC(=NN=C1SCC(=O)N1Cc1ccccc1[N+](=O)[O-])c1ccc[cH-]1.[Fe+2].c1cc[cH-]c1` [Compound 3, 3-(2-Nitrobenzyl)-2-((1-(ferrocen-2-yl)ethylidene)hydrazono)thiazolidin-4-one], the IC50 [1, 5] was 15 µM, the IC90 [1, 5] was 78 µM and the “TD50, median toxicity dose, a measure of cytotoxicity against host cells” value (“TD50, median toxicity dose, a measure” for short) [2, 6] was at least 320 µM. For the same molecule, the “Inhibition of tachyzoite invasion” value [3] was “notable exceptions”.

In the case of `CC(=NN=C1SCC(=O)N1Cc1ccc([N+](=O)[O-])cc1)c1ccc[cH-]1.[Fe+2].c1cc[cH-]c1` [Compound 9, 3-(4-Nitrobenzyl)-2-((1-(ferrocen-2-yl)ethylidene)hydrazono)thiazolidin-4-one], the IC50 [1, 5] is reported as 73 µM, the IC90 [1, 5] is reported as 292 µM and the “TD50, median toxicity dose, a measure” value [2, 6] is reported as 217 µM. For the same molecule, the “Inhibition of tachyzoite attachment” value [3] was “significantly inhibited attachment”.

In the case of `CC(=NN=C1SCC(=O)N1Cc1ccccc1F)c1ccc[cH-]1.[Fe+2].c1cc[cH-]c1` [Compound 12, 3-(2-Fluorobenzyl)-2-((1-(ferrocen-2-yl)ethylidene)hydrazono)thiazolidin-4-one], the IC50 [1, 5] is reported as 17 µM, the IC90 [1, 5] is reported as 64 µM and the “TD50, median toxicity dose, a measure” value [2, 6] is reported as at least 320 µM. For the same molecule, the “Fraction of PVs containing eight or more tachyzoites” value (“Fraction” below) [4] was 10–18% and the “Inhibition of intracellular tachyzoite replication” value [4] was “modest inhibition”.

In the case of `CC(=NN=C1SCC(=O)N1Cc1cccc(F)c1)c1ccc[cH-]1.[Fe+2].c1cc[cH-]c1` [Compound 15, 3-(3-Fluorobenzyl)-2-((1-(ferrocen-2-yl)ethylidene)hydrazono)thiazolidin-4-one], the IC50 [1, 5] is reported as 8 µM, the IC90 [1, 5] is reported as 57 µM and the “TD50, median toxicity dose, a measure” value [2, 6] is reported as at least 320 µM. The “Inhibition of tachyzoite attachment” value [3] was “significantly inhibited attachment”.

`CC(=NN=C1SCC(=O)N1Cc1ccc(F)cc1)c1ccc[cH-]1.[Fe+2].c1cc[cH-]c1` [Compound 18, 3-(4-Fluorobenzyl)-2-((1-(ferrocen-2-yl)ethylidene)hydrazono)thiazolidin-4-one] was tested, and the IC50 [1, 5] was 6 µM, the IC90 [1, 5] was 16 µM and the “TD50, median toxicity dose, a measure” value [2, 6] was at least 320 µM. For the same molecule, the “Fraction” value [4] was 10–18% and the “Inhibition of intracellular tachyzoite replication” value [4] was “modest inhibition”.

`CC(=NN=C1SCC(=O)N1Cc1ccc(Cl)cc1)c1ccc[cH-]1.[Fe+2].c1cc[cH-]c1` [Compound 27, 3-(4-Chlorobenzyl)-2-((1-(ferrocen-2-yl)ethylidene)hydrazono)thiazolidin-4-one] was tested, and the IC50 [1, 5] was 10 µM, the IC90 [1, 5] was 55 µM and the “TD50, median toxicity dose, a measure” value [2, 6] was at least 320 µM. For the same molecule, the “Inhibition of tachyzoite invasion” value [3] was “notable exceptions”, the “Fraction” value [4] was at most 1% and the “Inhibition of intracellular tachyzoite replication” value [4] was “fairly strong inhibition”.

With `CC(=NN=C1SCC(=O)N1Cc1cccc2ccccc12)c1ccc[cH-]1.[Fe+2].c1cc[cH-]c1` [Compound 30, 3-(Naphthalen-1-ylmethyl)-2-((1-(ferrocen-2-yl)ethylidene)hydrazono)thiazolidin-4-one] the IC50 [1, 5] was 5 µM, the IC90 [1, 5] was 17 µM and the “TD50, median toxicity dose, a measure” value [2, 6] was at least 320 µM. For the same molecule, the “Inhibition of tachyzoite attachment” value [3] was “significantly inhibited attachment”.

`Nc1ccc(S(=O)(=O)Nc2ncccn2)cc1` [Sulfadiazine, reference compound] was tested, and the IC50 ([1]; Toxoplasma gondii) was 43 µM, the IC90 ([1]; Toxoplasma gondii) was 219 µM and the “TD50, median toxicity dose, a measure” value ([2]; human) was 281 µM. For the same molecule, the “Inhibition of intracellular tachyzoite replication” value [4] was “robust replication inhibition”.
